Experiments:
MDA-MB-468 [1] = assay: drug sensitivity score (DSS), CellTiter-Glo (DSS (AUC-based score)); higher = stronger drug effect (viability inhibition or cytotoxicity); extreme values may be limits of the assay; conditions: incubation time: 72 h
Procedure, shortened: (§1)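 In 384-well plates, compound was laid out at 5 concentrations in 10-fold steps over a 10,000-fold range specific to each compound, and breast cancer cell lines were seeded on top in 20 µl suspension for a 72 h incubation. CellTox Green fluorescence and then CellTiter-Glo luminescence were read, and each plate was normalised to 0.1 % DMSO and a positive kill control. The drug sensitivity score was calculated from the area under the fitted dose-response curve.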

HCC1143 = assay: as above; conditions: incubation time: 72 h
Procedure, shortened: as §1

MCF-10A = assay: as above; conditions: incubation time: 72 h
Procedure, shortened: as §1

Hs578T = conditions: 72 h
Procedure, shortened: (§2)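 In this assay, breast cancer cell lines spent 72 h with compound at 5 concentrations in 10-fold steps over a compound-specific 10,000-fold range. The first readout was cell death by CellTox Green fluorescence, and the second was viability by CellTiter-Glo luminescence, each normalised per plate to 0.1 % DMSO and a positive kill control. EC50 came from the dose-response curves, censored at the top concentration.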

MDA-MB-231 = conditions: 72 h
Procedure, shortened: as §2

CAL-120 = conditions: 72 h
Procedure, shortened: as §2

MDA-MB-468 [2] = conditions: 72 h
Procedure, shortened: as §2

MDA-MB-436 = conditions: 72 h
Procedure, shortened: as §2

SK-BR-3 = conditions: 72 h
Procedure, shortened: as §2

BT-474 = conditions: 72 h
Procedure, shortened: as §2

BT-549 = conditions: 72 h
Procedure, shortened: as §2

HCC1937 = conditions: 72 h
Procedure, shortened: as §2

HDQ-P1 = conditions: 72 h
Procedure, shortened: as §2

CAL-85-1 = conditions: 72 h
Procedure, shortened: as §2

MFM-223 = conditions: 72 h
Procedure, shortened: as §2

HCC1599 = conditions: 72 h
Procedure, shortened: as §2

Structure (SMILES) | drug sensitivity score (MDA-MB-468 [1]) | drug sensitivity score (HCC1143) | drug sensitivity score (MCF-10A) | EC50, CellTiter-Glo (Hs578T) [nM] | EC50, CellTiter-Glo (MDA-MB-231) [nM] | EC50, CellTiter-Glo (CAL-120) [nM] | EC50, CellTiter-Glo (MDA-MB-468 [2]) [nM] | EC50, CellTiter-Glo (MDA-MB-436) [nM] | EC50, CellTiter-Glo (SK-BR-3) [nM] | EC50, CellTiter-Glo (BT-474) [nM] | EC50, CellTiter-Glo (BT-549) [nM] | EC50, CellTiter-Glo (HCC1937) [nM] | EC50, CellTiter-Glo (HDQ-P1) [nM] | EC50, CellTiter-Glo (CAL-85-1) [nM] | EC50, CellTiter-Glo (MFM-223) [nM] | EC50, CellTiter-Glo (HCC1599) [nM]
CO[C@@H]1[C@H](N(C)C(=O)c2ccccc2)C[C@H]2O[C@]1(C)n1c3ccccc3c3c4c(c5c6ccccc6n2c5c31)C(=O)NC4 [Midostaurin] | 14.6 | 8.75 | 17 | 254 | 265 | 275 | 229 | 690 | 634 | 275 | 585 | 547 | 465 | 831 | 595 | –
CO[C@@]12[C@H](COC(N)=O)C3=C(C(=O)C(C)=C(N)C3=O)N1C[C@@H]1N[C@@H]12 [Mitomycin C] | 4.87 | 0 | 0 | – | – | > 10000 | 3860 | 7150 | > 10000 | – | 1680 | – | – | 2420 | – | –
C=CCn1c(=O)c2cnc(Nc3ccc(N4CCN(C)CC4)cc3)nc2n1-c1cccc(C(C)(C)O)n1 [MK1775] | 12.5 | 11.6 | 9.77 | 275 | 172 | 740 | 759 | 308 | 203 | 233 | 373 | 344 | 326 | 294 | 250 | 183
Nc1ccn([C@@H]2O[C@H](CO)[C@@H](O)C2(F)F)c(=O)n1 [Gemcitabine] | 19.7 | 14.5 | 5.69 | 26.9 | – | 87.3 | 6.86 | 9.55 | 12.8 | 32.1 | 5.01 | – | – | 18.5 | – | 18.4
COc1cc(Nc2c(C#N)cnc3cc(OCCCN4CCN(C)CC4)c(OC)cc23)c(Cl)cc1Cl [Bosutinib] | 8.1 | 3.67 | 15.1 | 9760 | 1810 | 1450 | 1920 | 2170 | 3120 | 2480 | 3160 | 2100 | 972 | 1580 | 1910 | 3160
CNC(=O)c1ccccc1Sc1ccc2c(/C=C/c3ccccn3)n[nH]c2c1 [Axitinib] | 4.94 | 0 | 0 | – | – | 3570 | 3880 | 3040 | – | – | – | – | 4770 | – | 348 | 881
COc1ccc(S(=O)(=O)Nc2cccnc2Nc2ccc(O)cc2)cc1 [ABT-751] | 12 | 6.19 | 2.74 | 773 | 740 | 218 | 397 | 507 | 529 | 575 | 499 | 350 | 231 | 264 | 1010 | 752
